The source of these data is ChEMBL document CHEMBL2040802, “Synthesis and pharmacological activity of N-(2,2-dimethyl-3,4-dihydro-2H-1-benzopyran-4-yl)-4H-1,2,4-benzothiadiazine-3-carboxamides 1,1-dioxides on rat uterus, rat aorta and rat pancreatic β-cells” (Eur J Med Chem, 2012).

Each structure is given as a SMILES string. A value given as a limit tells only on which side of the number the result lay.

Assay [1] can be described thus: Inhibition of glucose-induced insulin secretion from Wistar rat pancreatic islet assessed as residual insulin release at 50 uM after 90 mins by radiometric analysis. It is filed as functional.
A further assay deals with Aorta. The assay can be described thus: Myorelaxant activity in Wistar rat aorta rings assessed as inhibition of KCl-induced contraction. It is filed as functional, tissue-based.
Assay [2] can be described thus: Myorelaxant effect in oxytoxin-induced Wistar rat uterus smooth muscle assessed as residual contractile activity by continuous superfusion of oxytocin at 10 uM. Format: functional.
Assay [3] is described as follows: Myorelaxant effect in oxytoxin-induced Wistar rat uterus smooth muscle assessed as residual contractile activity by continuous superfusion of oxytocin at 50 uM. It is filed as functional.
Assay [4] can be described thus: Myorelaxant effect in oxytoxin-induced Wistar rat uterus smooth muscle assessed as residual contractile activity by continuous superfusion of oxytocin at 100 uM. It is filed as functional.

By EC50 is commonly meant the midpoint of the concentration-response curve. Turning to `CC1(C)CC(NC(=O)C2=NS(=O)(=O)c3ccccc3N2)c2cc(F)ccc2O1` (centres undefined), the Activity in assay [1] is reported as 77.3%; in assay [2] it was 123.7%; in assay [3] it was 97.9%; in assay [4], 76.8%. Further, the EC50 in the assay on Aorta was above 30 µM.
For `Cc1ccc2c(c1)S(=O)(=O)N=C(C(=O)NC1CC(C)(C)Oc3ccc(F)cc31)N2` (centres undefined), in that order: 96.9%, 116.6%, 132.4%, 124.4% and above 30 µM.
For `CC1(C)CC(NC(=O)C2=NS(=O)(=O)c3ccccc3N2)c2cc(Br)ccc2O1` (centres undefined), in that order: 86.7%, 60.1%, 44.3%, 19.9% and above 30 µM.
For `Cc1ccc2c(c1)S(=O)(=O)N=C(C(=O)NC1CC(C)(C)Oc3ccc(Br)cc31)N2` (centres undefined), in that order: 91.4%, 76.8%, 44.5%, 6.6% and above 30 µM.
On to `CC1(C)CC(NC(=O)C2=NS(=O)(=O)c3ccccc3N2)c2cc([N+](=O)[O-])ccc2O1` (centres undefined), for which the Activity worked out at 77.9% in assay [1], 96.8% in assay [2], 62.4% in assay [3] and 34.7% in assay [4]. For the same compound, the EC50 with Aorta was above 30 µM.
The like results for `CC1(C)CC(NC(=O)C2=NS(=O)(=O)c3cc(Cl)ccc3N2)c2cc([N+](=O)[O-])ccc2O1` (centres undefined) were, in that order, 77%, 97.9%, 70.9%, 34.7% and above 30 µM.
For `Cc1ccc2c(c1)S(=O)(=O)N=C(C(=O)NC1CC(C)(C)Oc3ccc([N+](=O)[O-])cc31)N2` (centres undefined), in that order: 75.7%, 103.9%, 94.9%, 90.6% and above 30 µM.
Turning to `CC1(C)Oc2ccc(C#N)cc2[C@@H](N2CCCC2=O)[C@@H]1O` (relative stereo) [LEVCROMAKALIM], the Activity in assay [1] turned out to be 77.2%.
As to `CC1=Nc2ccc(Cl)cc2S(=O)(=O)N1` [DIAZOXIDE], the Activity in assay [1] worked out at 28.8%; in assay [2], 93.8%; in assay [3] it was 76.3%; in assay [4], 67.7%.
Consider `CC(N/C(=N\C#N)Nc1ccncc1)C(C)(C)C` (centres undefined) [PINACIDIL ANHYDROUS], for which the Activity stood at 92.1% in assay [1], 58.1% in assay [2], 35.5% in assay [3] and 38.1% in assay [4].
